Where two headings read alike, the source gives them in different places.
Assays:
[1] = Pharmacokinetic behavior in mice (plasma concentration by LC-MS/MS); type: in vivo; conditions: male ICR mice
Protocol: (§1) Three healthy ICR mice (SPF grade, from Beijing Vital River Laboratory Animal Technology Co., Ltd.), male, weighing 18-25 g, were intravenously injected with a compound (1 mg/kg) at a volume of 5 mL/kg. The compound was prepared using 5% DMSO+10% Solutol+85% Saline (w/v), and the animals were not fasted before the experiment.
as §1, with “were intragastrically administered” for “were intravenously injected with”, “compound (5” for “compound (1”, “of 10” for “of 5”
Blood samples (about 0.05 mL each) were collected from the cheeks at 5 min, 15 min, 30 min, 1 h, 2 h, 4 h, 6 h, 8 h, and 24 h after intravenous administration, and at 5 min, 15 min, 30 min, 1 h, 2 h, 4 h, 6 h, 8 h, and 24 h after intragastrical administration, and anticoagulated with heparin sodium. Following collection, the blood samples were placed on ice and the plasma was centrifuged within 1 h (centrifugation conditions: 6,000 g, 3 min, 2 °C to 8°C). The concentration of the compounds in the plasma was determined by liquid chromatography tandem mass spectrometry. The plasma samples were stored in a -80°C freezer before analysis. With plasma concentration data at different time points, pharmacokinetic parameters were calculated by Phoenix WinNonlin8.2.0, and the results are shown in Table 4: Table 4

[2] = biological target: T1, IRAK4-HiBiT fusion protein (Homo sapiens, UniProt Q9NWZ3); experiment: Detection of HiBiT-IRAK4 proteolysis levels in K562 IRAK4-HiBiT cells (Nano-Glo HiBiT Lytic assay); type: cell-based
T1 construct: K562 from ATCC
T1 sequence (Q9NWZ3 1-460): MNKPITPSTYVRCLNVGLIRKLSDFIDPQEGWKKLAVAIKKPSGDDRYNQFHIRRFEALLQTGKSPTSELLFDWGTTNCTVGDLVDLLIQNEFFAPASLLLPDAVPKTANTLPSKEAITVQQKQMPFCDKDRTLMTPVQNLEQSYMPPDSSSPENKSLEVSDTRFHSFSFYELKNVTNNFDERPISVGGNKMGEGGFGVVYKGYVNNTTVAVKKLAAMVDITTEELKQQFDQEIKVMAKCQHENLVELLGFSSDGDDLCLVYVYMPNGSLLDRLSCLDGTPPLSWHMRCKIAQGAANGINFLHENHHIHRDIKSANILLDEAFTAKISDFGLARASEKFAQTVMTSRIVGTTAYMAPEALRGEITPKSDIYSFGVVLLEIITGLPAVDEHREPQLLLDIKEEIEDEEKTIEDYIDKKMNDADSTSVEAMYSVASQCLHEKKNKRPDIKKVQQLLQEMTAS
Protocol: Test Example 1 Detection of HiBiT-IRAK4 proteolysis levels in K562 IRAK4-HiBiT cells co-incubated with compounds of the present application • Reagents, devices, and consumables in experiments: • Nano-Glo Lytic Detection Assay, purchased from Promega; • EnVision, purchased from PerkinElmer; • Name of cell line: K562 IRAK4-HiBiT stable transformation cell strain (capable of stably expressing IRAK4-HiBiT fusion protein), constructed by Shanghai Bioduro Biologics Co., Ltd., where a K562 cell strain was purchased from ATCC. The culture medium is IMDM+10% FBS+1% P/S (volume percentage, where FBS is fetal bovine serum and P/S is Penicillin-Streptomycin, a 1:1 mixture of penicillin and streptomycin antibiotic solution (10,000 units/mL)).
Cell culture: K562 IRAK4-HiBiT cells were incubated at 37°C, and passaged every 2-3 d, with a seeding density of 200,000 cells/mL.
IRAK4-HiBiT proteolysis experiment: • Step 1: Cell seeding and treatment of compound • 1. A 10 mM compound mother liquor was prepared using DMSO, and a compound solution with a working concentration of 1,000 times (the highest working concentration is 10 µM, diluted 3.162 times, with a total of 10 concentration gradients) was prepared using Bravo automatic liquid processing platform. • 2. 40 nL of a compound working solution was transferred to a 384 well plate, and an equal volume of DMSO was added to positive control wells. • 3. 20 µL of a culture solution was added per well and shaken for 10 min. • 4.20 µL of a K562 IRAK4-HiBiT cell suspension was added per well (6,000 cells/well), and an equal volume of culture medium was added to negative control wells. • 5. The well plate was rotated at 1,000 rpm for 1 min. • 6. The cells were incubated in a 5% CO2 incubator at 37°C for 2 h or 6 h. • Step 2: HiBiT Lytic experiment • 1. The well plate was placed at room temperature to equilibrate for 30 min. • 2. 20 µL of Nano-Glo HiBiT Lytic reagent (trade name: Nano-Glo® HiBiT Lytic Detection Reagent) and the well plate was kept in the dark. • 3. The well plate was placed on an orbital shaker at 300 rpm for 5 min. • 4. The cells were incubated at room temperature for 10 min. • 5. The luminous value was read by Envision. • 6. Data was calculated and processed. Degradation degree%=(negative control - experimental well)/(negative control - positive control) * 100%. Using XL-fit software, a degradation curve was obtained by fitting using a 4 Parameter Logistic Model, and the values of Relative DC50 (nM) and Absolute DC50 (nM) were obtained.

[3] = tested on: LPS induced IL-6 release in human PBMC cells; experiment: Inhibition of LPS induced IL-6 release in human PBMC cells (IL-6 HTRF assay); type: cell-based; conditions: 2 h compound pre-incubation, LPS 5 ng/mL for 4 h, IL-6 in supernatant
Protocol: I. Recovery and seeding of PBMC, and treatment of compounds (human PBMC cells were purchased from Oricell, item number: Fpb003F)
• 1. Preparation of compounds Sample dilutions of a series of concentrations were obtained by dilution in DMSO using Bravo, and then 80 nL was transferred into a cell plate using ECHO. The final concentration of DMSO in the cell culture medium is 0.1%. • 2. Frozen cells were quickly thawed in a 37°C water bath and stirred continuously. • 3. 25 mL of fresh preheated culture medium was added into a 50 mL centrifuge tube, and then the cells were added dropwise. Then the cells were centrifuged at 2,000 rpm for 10 min. • 4. […] The total number of cells required was calculated based on cell concentration to perform the assay. 7×10e4 cells were added per well (70 µL). • 6. The cell plate was placed and incubated in a 5% CO2 incubator at 37°C for 2 h.
• 1. LPS: A stock solution (1 mg/mL) was diluted in dH2O, aliquoted, and stored at -80°C. • 2. 8-fold LPS was added per well (10 µl/well) (with a final concentration of 5 ng/mL). The cells were incubated in a 5% CO2 incubator at 37°C for 4 h. • 3. 70 µl of supernatant was collected per well using Bravo, and then IL-6 HTRF assay was performed. The supernatant may be stored at -80°C.
1. Preparation of standards and sample dilutions. 2. 16 µL of each sample was taken using Bravo and added to wells. Then 16 µL of each standard was taken and added to corresponding wells. 3.4 µL of a premixed IL6 antibody working solution was added to each of all wells. 4. The cell plate was sealed and incubated at room temperature for 2 h. 5.

[4] = Intragastric administration (5 mg/kg), 5 mg/kg
[5] = Intravenous injection (1 mg/kg), 1 mg/kg
[6] = 6 h incubation, read-out: Absolute DC50
[7] = 6 h incubation, read-out: Relative DC50
[8] = 2 h incubation, read-out: Absolute DC50
[9] = 2 h incubation, read-out: Relative DC50

SMILES	Dmax ([2]; 6 h incubation) [%]	DC50 [2, 6] [nM]	DC50 [2, 7] [nM]	further results
CC(C)(O)c1cc2nn([C@H]3CC[C@H](CCN4CCN5c6ccc(C7(C)CCC(=O)NC7=O)cc6OC[C@H]5C4)CC3)cc2cc1NC(=O)c1cccc(C(F)(F)F)n1 (single isomer, unassigned) [Compound 120-b-1]				AUClast [1, 4]: 16903 ng·h/mL; Cmax [1, 4]: 1457 ng/mL; F% [1, 4]: 44.5%; T1/2 [1, 4]: 5.32 h; AUClast [1, 5]: 7249 ng·h/mL; CL [1, 5]: 2.10 mL/min/kg; Cmax [1, 5]: 888 ng/mL; Vss [1, 5]: 1.19 L/kg
CC(C)(O)c1cc2nn([C@H]3CC[C@H](CCN4CCN5c6ncc(C7CCC(=O)NC7=O)cc6OCC5C4)CC3)cc2cc1NC(=O)c1cccc(C(F)(F)F)n1 (stereo partly shown) [Compound 2]	96	6.32	5.43	
CC(C)(O)c1cc2nn([C@H]3CC[C@H](CCN4CCC5(CC4)OCc4cc(C6CCC(=O)NC6=O)ccc45)CC3)cc2cc1NC(=O)c1cccc(C(F)(F)F)n1 (stereo partly shown) [Compound 47]	93	0.65	0.54	IC50 [3]: 0.52 nM
CC(C)Oc1cc2nc([C@H]3CC[C@H](CCN4CCC5(CC4)OCc4cc(C6CCC(=O)NC6=O)ccc45)CC3)cn2cc1C(=O)Nc1cnn2cccnc12 (stereo partly shown) [Compound 94]	97	3.82	3.97	IC50 [3]: 64.5 nM
COc1cc2nn([C@H]3CC[C@H](CCN4CCN5c6ccc(C7CCC(=O)NC7=O)cc6OCC5C4)CC3)cc2cc1C(=O)Nc1cccc(C(F)(F)F)n1 (stereo partly shown) [Compound 95]	97	3.87	4.83	
COc1cc2nn(C3CCN(CCN4CCC5(CC4)OCc4cc(C6CCC(=O)NC6=O)ccc45)CC3)cc2cc1NC(=O)c1cccc(C(F)(F)F)n1 (stereo not shown) [Compound 97]	93	1.64	1.6	
COc1cc2nn(C3CCN(CCN4CCN5c6ccc(C7CCC(=O)NC7=O)cc6OCC5C4)CC3)cc2cc1NC(=O)c1cccc(C(F)(F)F)n1 (stereo not shown) [Compound 98]	89	< 1	0.2	
CC(C)(O)c1cc2nn(C3CCN(CCN4CCN5c6ccc(C7CCC(=O)NC7=O)cc6OCC5C4)CC3)cc2cc1NC(=O)c1cccc(C(F)(F)F)n1 (stereo not shown) [Compound 99]				Dmax ([2]; 2 h incubation): 66%; DC50 [2, 8]: 40.3 nM; DC50 [2, 9]: 13.5 nM
[2H]C1(c2ccc3c(c2)OCC2CN(CCC4CCC(n5cc6cc(NC(=O)c7cccc(C(F)(F)F)n7)c(C(C)(C)O)cc6n5)CC4)CCN32)CCC(=O)NC1=O (stereo not shown) [Compound 101]				Dmax ([2]; 2 h incubation): 87%; DC50 [2, 8]: 7.2 nM; DC50 [2, 9]: 4.28 nM
CC(C)(O)c1cc2nn([C@H]3CC[C@H](CN4CCC5(CC4)OCc4cc(C6CCC(=O)NC6=O)ccc45)CC3)cc2cc1NC(=O)c1cccc(C(F)(F)F)n1 (stereo partly shown) [Compound 114]	85	4.85	3.99	
CC(C)(O)c1cc2nn([C@H]3CC[C@H](CCN4CC5(CCN6c7ccc(C8CCC(=O)NC8=O)cc7NC6C5)C4)CC3)cc2cc1NC(=O)c1cccc(C(F)(F)F)n1 (stereo partly shown) [Compound 115]	77	146	81.4	
CC(C)(O)c1cc2nn([C@H]3CC[C@H](CCN4CCN5c6ncc(N7CCC(=O)NC7=O)cc6OCC5C4)CC3)cc2cc1NC(=O)c1cccc(C(F)(F)F)n1 (stereo partly shown) [Compound 116]	83	8.37	4.48	
CC(C)(O)c1cc2nn([C@H]3CC[C@H](CCN4CCN5c6ccc(N7CCC(=O)NC7=O)cc6OCC5C4)CC3)cc2cc1NC(=O)c1cccc(C(F)(F)F)n1 (stereo partly shown) [Compound 117]	89	11.7	10.3	
CC(C)(O)c1cc2nn([C@H]3CC[C@H](CCN4CCN5c6ccc(N7CCC(=O)NC7=O)cc6CCC5C4)CC3)cc2cc1NC(=O)c1cccc(C(F)(F)F)n1 (stereo partly shown) [Compound 118]				Dmax ([2]; 2 h incubation): 61%; DC50 [2, 8]: 4.62 nM; DC50 [2, 9]: 0.96 nM
CC(C)(O)c1cc2nn([C@H]3CC[C@H](CCN4CCN5c6ccc(C7CCC(=O)NC7=O)cc6CCC5C4)CC3)cc2cc1NC(=O)c1cccc(C(F)(F)F)n1 (stereo partly shown) [Compound 119]				Dmax ([2]; 2 h incubation): 93%; DC50 [2, 8]: 1.11 nM; DC50 [2, 9]: 1.02 nM
CC(C)(O)c1cc2nn([C@H]3CC[C@H](CCN4CCN5c6ccc(C7(C)CCC(=O)NC7=O)cc6OCC5C4)CC3)cc2cc1NC(=O)c1cccc(C(F)(F)F)n1 (stereo partly shown) [Compound 120]				Dmax ([2]; 2 h incubation): 90%; DC50 [2, 8]: 39 nM; DC50 [2, 9]: 27.8 nM
CC(C)(O)c1cc2nn([C@H]3CC[C@H](CCN4CCN5c6ccc(C7(C)CCC(=O)NC7=O)cc6OCC5C4)CC3)cc2cc1NC(=O)c1ccc2cc(C#N)cnn12 (stereo partly shown) [Compound 126]	97	10.8	12.3	
CC(C)(O)c1cc2nn([C@H]3CC[C@H](CCN4CCN5c6ccc(C7CCC(=O)NC7=O)cc6OCC5C4)CC3)cc2cc1NC(=O)c1ccc2cc(C#N)cnn12 (stereo partly shown) [Compound 129]	97	4.41	4.32	
CC(C)(O)c1cc2nn([C@H]3CC[C@H](CCN4CCN5c6ccc(C7CCC(=O)NC7=O)cc6OCCC5C4)CC3)cc2cc1NC(=O)c1cccc(C(F)(F)F)n1 (stereo partly shown) [Compound 130]	97	8.13	8.51	
